In US20120214862A1, “MODULATION OF FACTOR 7 EXPRESSION” (ISIS Pharmaceuticals, Inc., priority 2009, published 2012):
In the oligonucleotide strings, read from the 5' end, every base follows the letter of its sugar. An asterisk marks phosphorothioate; unmarked linkages are phosphodiester. Other units and linkages are bracketed, terminal groups are in braces. A string of capitals states the bases alone. e = 2'-O-(2-methoxyethyl) (MOE); [5mC] = 5-methylcytosine; d = 2'-deoxy (DNA)

Assays:
Type in all cases: cell-based
human Factor 7 mRNA [1] = assay: Dose-dependent antisense inhibition of human Factor 7 in HepB3 cells, transfection with lipofectin; conditions: lipofectin, HepB3 cells, 16 hours
How it was run: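 HepB3 cells (4,000/well) lipofectin-transfected with antisense oligonucleotide at 3.125 or 6.25 up to 100 nM for ~16 h. Factor 7 mRNA measured by real-time RT-PCR with primer probe set RTS 2927, adjusted to RIBOGREEN total RNA; expressed as percent inhibition versus untreated control cells.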

human Factor 7 mRNA [2] = assay: Dose-dependent antisense inhibition of human Factor 7 in HepB3 cells, transfection with electroporation
Procedure: (§1) The gapmers were also transfected via electroporation and their dose-dependent inhibition of human Factor 7 mRNA was measured. Cells were plated at a density of 20,000 cells per well and transfected via electroporation with 3.125 μM, 6.25 μM, 12.5 μM, 25 μM, 50 μM, and 100 μM concentrations of antisense oligonucleotide, as specified in Table 15. After a treatment period of approximately 16 hours, RNA was isolated from the cells and Factor 7 mRNA levels were measured by quantitative real-time PCR. Human Factor 7 primer probe set RTS 2927 was used to measure mRNA levels. Factor 7 mRNA levels were adjusted according to total RNA content, as measured by RIBOGREEN®. Results are presented as percent inhibition of Factor 7, relative to untreated control cells.
as §1, with “Cells were” for “The gapmers were also transfected via electroporation and their dose-dependent inhibition of human Factor 7 mRNA was measured. Cells were”, “in Table 16. After a” for “in Table 15. After a”, “cells and human Factor 7” for “cells and Factor 7”

human Factor 7 mRNA [3] = assay: Antisense inhibition of human Factor 7 mRNA in HepB3 cells, lipofectin, 50 nM, real-time RT-PCR; conditions: HepB3 cells
How it was run: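 Cells plated at 4,000 per well were transfected and harvested after approximately 24 hours of treatment. Transcript levels, measured with primer probe set RTS 2927, were normalised to total RNA by RIBOGREEN®. Values are percent inhibition relative to untreated control cells.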

[4] = 3.125 μM, 16 hours (Example 7, Table 15)
[5] = 6.25 μM, 16 hours (Example 7, Table 15)
[6] = 12.5 μM, 16 hours (Example 7, Table 15)
[7] = 25 μM, 16 hours (Example 7, Table 15)
[8] = 50 μM, 16 hours (Example 7, Table 15)
[9] = 100 μM, 16 hours (Example 7, Table 15)
[10] = gapmers (5-10-5, 3-14-3, 2-13-5 MOE) targeted to nucleobases 4868 to 4899 of SEQ ID NO: 1
[11] = gapmers targeted to nucleobases 15188 to 15211 of SEQ ID NO: 1 (Table 13)
[12] = 3.125 μM, 16 hours (Example 8, Table 16)
[13] = 6.25 μM, 16 hours (Example 8, Table 16)
[14] = 12.5 μM, 16 hours (Example 8, Table 16)
[15] = 25 μM, 16 hours (Example 8, Table 16)
[16] = 50 μM, 16 hours (Example 8, Table 16)
[17] = 100 μM, 16 hours (Example 8, Table 16)

Substance | percent inhibition of Factor 7 mRNA, relative to untreated control cells (human Factor 7 mRNA [1]; 3.125 nM) | percent inhibition of Factor 7 mRNA, relative to untreated control cells (human Factor 7 mRNA [1]; 12.5 nM) | percent inhibition of Factor 7 mRNA, relative to untreated control cells (human Factor 7 mRNA [1]; 25 nM) | percent inhibition of Factor 7 mRNA, relative to untreated control cells (human Factor 7 mRNA [1]; 50 nM) | percent inhibition of Factor 7 mRNA, relative to untreated control cells (human Factor 7 mRNA [1]; 100 nM) | percent inhibition of Factor 7 mRNA, relative to untreated control cells (human Factor 7 mRNA [1]) | percent inhibition of Factor 7 mRNA, relative to untreated control cells (human Factor 7 mRNA [2]; [4]) | percent inhibition of Factor 7 mRNA, relative to untreated control cells (human Factor 7 mRNA [2]; [5]) | percent inhibition of Factor 7 mRNA, relative to untreated control cells (human Factor 7 mRNA [2]; [6]) | percent inhibition of Factor 7 mRNA, relative to untreated control cells (human Factor 7 mRNA [2]; [7]) | percent inhibition of Factor 7 mRNA, relative to untreated control cells (human Factor 7 mRNA [2]; [8]) | percent inhibition of Factor 7 mRNA, relative to untreated control cells (human Factor 7 mRNA [2]; [9]) | % Inhibition of human Factor 7 mRNA levels (human Factor 7 mRNA [3]; [10]) | also measured
422215 (antisense eG*eT*eT*d[5mC]*dT*dG*d[5mC]*dA*dG*dG*dA*dG*d[5mC]*dG*dG*d[5mC]*d[5mC]*eT*eA*eA) [compound 422215] | 13% | 54% | 65% | 84% | 82% | 30% | 11% | 9% | 31% | 50% | 68% | 84% | 73% | –
422217 (antisense eG*eA*eG*dT*dT*d[5mC]*dT*dG*d[5mC]*dA*dG*dG*dA*dG*d[5mC]*dG*dG*e[5mC]*e[5mC]*eT) [compound 422217] | 8% | 45% | 63% | 79% | 83% | 18% | 15% | 19% | 29% | 55% | 61% | 83% | 75% | –
422228 (antisense eT*eG*d[5mC]*dA*dT*dG*dG*dT*dG*dA*dT*dG*d[5mC]*dT*dT*e[5mC]*eT*eG*eA*eA) [compound 422228] | 17% | 43% | 60% | 78% | 90% | 25% | 18% | 33% | 40% | 47% | 71% | 83% | – | % Inhibition of human Factor 7 mRNA levels (human Factor 7 mRNA [3]; [11]): 73%
422229 (antisense eA*eT*dG*d[5mC]*dA*dT*dG*dG*dT*dG*dA*dT*dG*d[5mC]*dT*eT*e[5mC]*eT*eG*eA) [compound 422229] | 21% | 53% | 72% | 86% | 92% | 32% | 21% | 30% | 33% | 44% | 65% | 77% | – | percent inhibition of Factor 7 mRNA, relative to untreated control cells (human Factor 7 mRNA [2]; [12]): 30%; percent inhibition of Factor 7 mRNA, relative to untreated control cells (human Factor 7 mRNA [2]; [13]): 45%; percent inhibition of Factor 7 mRNA, relative to untreated control cells (human Factor 7 mRNA [2]; [14]): 67%; percent inhibition of Factor 7 mRNA, relative to untreated control cells (human Factor 7 mRNA [2]; [15]): 79%; percent inhibition of Factor 7 mRNA, relative to untreated control cells (human Factor 7 mRNA [2]; [16]): 90%; percent inhibition of Factor 7 mRNA, relative to untreated control cells (human Factor 7 mRNA [2]; [17]): 92%; % Inhibition of human Factor 7 mRNA levels (human Factor 7 mRNA [3]; [11]): 71%
422252 (antisense e[5mC]*eG*d[5mC]*d[5mC]*dG*dG*d[5mC]*dT*d[5mC]*dT*dG*d[5mC]*dT*d[5mC]*dA*eT*e[5mC]*e[5mC]*e[5mC]*e[5mC]) [compound 422252] | 18% | 45% | 61% | 77% | 87% | 17% | 23% | 12% | 26% | 38% | 58% | 80% | – | % Inhibition of human Factor 7 mRNA levels (human Factor 7 mRNA [3]; gapmers targeted to nucleobases 13760 to 13789 of SEQ ID NO: 1 (Table 10)): 70%
422292 (antisense eG*eT*dT*d[5mC]*dT*dG*d[5mC]*dA*dG*dG*dA*dG*d[5mC]*dG*dG*e[5mC]*e[5mC]*eT*eA*eA) [compound 422292] | 13% | 44% | 63% | 81% | 83% | 21% | 36% | 25% | 47% | 59% | 75% | 86% | 75% | percent inhibition of Factor 7 mRNA, relative to untreated control cells (human Factor 7 mRNA [2]; [12]): 31%; percent inhibition of Factor 7 mRNA, relative to untreated control cells (human Factor 7 mRNA [2]; [13]): 40%; percent inhibition of Factor 7 mRNA, relative to untreated control cells (human Factor 7 mRNA [2]; [14]): 68%; percent inhibition of Factor 7 mRNA, relative to untreated control cells (human Factor 7 mRNA [2]; [15]): 75%; percent inhibition of Factor 7 mRNA, relative to untreated control cells (human Factor 7 mRNA [2]; [16]): 82%; percent inhibition of Factor 7 mRNA, relative to untreated control cells (human Factor 7 mRNA [2]; [17]): 83%
422295 (antisense e[5mC]*eG*dA*dG*dT*dT*d[5mC]*dT*dG*d[5mC]*dA*dG*dG*dA*dG*e[5mC]*eG*eG*e[5mC]*e[5mC]) [compound 422295] | 17% | 44% | 64% | 80% | 85% | 22% | 10% | 8% | 37% | 58% | 68% | 80% | 74% | –
